Data from patent US20190002436A1, “RESPIRATORY SYNCYTIAL VIRUS INHIBITORS” (MEDIVIR AB, priority 2015, published 2019).

What follows are compounds tested on RSV (Long) (assay: RSV cytopathic effect (CPE)-based viral replication assay). Conditions: human respiratory syncytial virus, HEp-2, 72 h, HEp-2 cells infected with RSV Long at MOI 0.015; 3 days at 37° C.; cell viability by CellTiter-Glo luminescence; read-out: EC50 (nm).
Type: cell-based, respiratory syncytial virus (RSV)
Method: Example A: RSV Cytopathic Effect
Compounds of the invention are initially tested in a cytopathic effect (CPE)-based viral replication assay using immortalized cells and a laboratory strain of RSV (Long). This assay evaluates the ability of a compound to inhibit viral replication.
Assay plates are prepared by seeding 2,500 HEp-2 cells (ATCC) per well of a 384-well black clear-bottom plate (Greiner Bio-One) in 20 μL of assay media (defined as DMEM supplemented with 2% heat-inactivated fetal bovine serum and 1% Penicillin/Streptomycin). Assay plates are incubated overnight at 37° C. in an incubator containing 5% CO2. The following day, a 10-point serial dilution of test compound is prepared in DMSO. Compounds are subsequently diluted with assay media and 20 μL of diluted compound (containing 1.5% DMSO) is transferred to an assay plate for evaluation of antiviral activity.
For the CPE assay, cells are infected at a Multiplicity of Infection (MOI) of 0.015 using 20 μL of RSV Long (ATCC) diluted in assay media. The DMSO concentration is constant throughout the assay plate, including the negative and positive controls. The assay plate is incubated for 3 days at 37° C. in an incubator containing 5% CO2. Cell viability is evaluated with the addition of 10 μL of CellTiter-Glo (ProMega). Luminescence is measured using an EnVision plate reader (Perkin Elmer). EC50 values are calculated using the raw data from the CPE assays.

Compared with COC(=O)N1CC2(C1)C(=O)N(Cc1ncc3ccccc3c1-c1ccc(C#N)nc1)c1ccccc12 [Example 44c, Methyl 1′-((4-(6-cyanopyridin-3-yl)isoquinolin-3-yl)methyl)-2′-oxospiro[azetidine-3,3′-indoline]-1-carboxylate], N#Cc1ccc(-c2c(CN3c4ccccc4[C@]4(C[C@@H](O)C4)C3=O)ncc3ccccc23)cn1 [Example 83] is 3.2-fold higher in EC50: 2.8 nM for the first, 9 nM for the second.

Compared with NC1(C(=O)N2CCC3(CC2)C(=O)N(Cc2ncc4ccccc4c2-c2ccncc2)c2cnccc23)CC1 [Example 2016], NC1(C(=O)N2CCC3(CC2)C(=O)N(Cc2ncc4ccccc4c2-c2cnco2)c2cnccc23)CC1 [Example 2043] is 5.6-fold higher in EC50: 7.1 nM for the first, 40 nM for the second. The first is the more potent here.

Compared with CS(=O)(=O)N1CCC2(CC1)C(=O)N(Cc1ncc3ccccc3c1-c1cnco1)c1cnccc12 [Example 159b, 1-(methylsulfonyl)-1′-((4-(oxazol-5-yl)isoquinolin-3-yl)methyl)spiro[piperidine-4,3′-pyrrolo[2,3-c]pyridin]-2′(1′H)-one], CS(=O)(=O)N1CCC2(CC1)C(=O)N(Cc1ncc3cc(Cl)ccc3c1-c1cccnc1)c1cnccc12 [Example 160c, 1′-((7-chloro-4-(pyridin-3-yl)isoquinolin-3-yl)methyl)-1-(methylsulfonyl)spiro[piperidine-4,3′-pyrrolo[2,3-c]pyridin]-2′(1′H)-one] is 6-fold lower in EC50: 7.8 nM for the first, 1.3 nM for the second. The second is the more potent here.

Compared with O=C(N1CC2(C1)C(=O)N(Cc1ncc3ccccc3c1-c1cccnc1)c1ccccc12)C(F)(F)F [Example 128, 1′-((4-(Pyridin-3-yl)isoquinolin-3-yl)methyl)-1-(2,2,2-trifluoroacetyl)spiro[azetidine-3,3′-indolin]-2′-one], COC(=O)N1CC2(C1)C(=O)N(Cc1ncc3ccccc3c1-c1ccnc(F)c1)c1ccccc12 [Example 95b, Methyl 1′-((4-(2-fluoropyridin-4-yl)isoquinolin-3-yl)methyl)-2′-oxospiro[azetidine-3,3′-indoline]-1-carboxylate] is 11-fold lower in EC50: 20 nM for the first, 1.8 nM for the second.

Compared with NC1(C(=O)N2CCC3(CC2)C(=O)N(Cc2ncc4ccccc4c2-c2ccc(OC(F)(F)F)cc2)c2cnccc23)CC1 [Example 2036], N#Cc1ccc(-c2c(CN3c4ccccc4[C@]4(C[C@H](O)C4)C3=O)ncc3ccccc23)cn1 [Example 82] is 2.1-fold lower in EC50: 23 nM for the first, 11 nM for the second. The second is the more potent here.

O=c1n(Cc2ncc3cc(Cl)ccc3c2CCCCO)c2cnccc2n1C1CC1 [Example 19b, 3-((7-chloro-4-(4-hydroxybutyl)isoquinolin-3-yl)methyl)-1-cyclopropyl-1H-imidazo[4,5-c]pyridin-2(3H)-one] and O=c1n(Cc2ncc3cccc(F)c3c2CCCCO)c2cnccc2n1C1CC1 [Example 31, 1-Cyclopropyl-3-((5-fluoro-4-(4-hydroxybutyl)isoquinolin-3-yl)methyl)-1H-imidazo[4,5-c]pyridin-2(3H)-one] are within 1.5-fold of each other in EC50: 110 nM for the first, 140 nM for the second.

Going from CS(=O)(=O)N1CC2(C1)C(=O)N(Cc1ncc3ccccc3c1-c1ccc(F)c(F)c1)c1ccccc12 [Example 75] to COC(=O)N1CC2(C1)C(=O)N(Cc1ncc3ccccc3c1-c1ccccn1)c1ccccc12 [Example 102, Methyl 2′-oxo-1′-((4-(pyridin-2-yl)isoquinolin-3-yl)methyl)spiro[azetidine-3,3′-indoline]-1-carboxylate], the EC50 rises from 7.1 nM to 194 nM (27-fold).

Compared with NCc1ccc2c(CCCCO)c(Cn3c(=O)n(C4CC4)c4ccccc43)ncc2c1 [Example 27], COC(=O)N1CCC(n2c(=O)n(Cc3ncc4ccccc4c3CCCC(F)(F)F)c3cnccc32)CC1 [Example 9b, methyl 4-(2-oxo-3-((4-(4,4,4-trifluorobutyl)isoquinolin-3-yl)methyl)-2,3-dihydro-1H-imidazo[4,5-c]pyridin-1-yl)piperidine-1-carboxylate] is 4.2-fold lower in EC50: 17 nM for the first, 4 nM for the second. The second is the more potent here.

CC(C)(C)c1ccc(-c2c(Cn3c(=O)n(C4CC4)c4ccncc43)ncc3ccccc23)cc1 [Example 51d, 3-((4-(4-(tert-butyl)phenyl)isoquinolin-3-yl)methyl)-1-cyclopropyl-1H-imidazo[4,5-c]pyridin-2(3H)-one] gave an EC50 greater than 1 nM.
